Assay: Henry solubility constant Hcp at 298.15 K (mol/(m3 Pa))
Settings: reference: Li et al. (1993)

SMILES | Henry solubility constant Hcp
CC(Cl)(Cl)Cl [1,1,1-trichloroethane] | 0.00057
Cc1ccccc1C [1,2-dimethylbenzene] | 0.0021
Cc1cc(C)cc(C)c1 [1,3,5-trimethylbenzene] | 0.0014
Cc1cccc(C)c1 [1,3-dimethylbenzene] | 0.0015
Cc1ccc(C)cc1 [1,4-dimethylbenzene] | 0.0014
CCCBr [1-bromopropane] | 0.0011
CCCCCl [1-chlorobutane] | 0.00053
CCCCCCCl [1-chlorohexane] | 0.00031
CCCCCCl [1-chloropentane] | 0.00042
CCCI [1-iodopropane] | 0.0011
CCC(C)Br (stereo unspecified) [2-bromobutane] | 0.00077
CC(C)Br [2-bromopropane] | 0.00084
CC(C)Cl [2-chloropropane] | 0.00054
CC(C)c1ccccc1 [(2-propyl)-benzene] | 0.00089
c1ccccc1 [benzene] | 0.0018
CCBr [bromoethane] | 0.0013
CCCCc1ccccc1 [butylbenzene] | 0.00067
ClCCl [dichloromethane] | 0.0038
CC(C)OC(C)C [diisopropyl ether] | 0.0044
CCCOCCC [dipropyl ether] | 0.0029
CCc1ccccc1 [ethylbenzene] | 0.0013
CCI [iodoethane] | 0.0014
Cc1ccccc1 [methylbenzene] | 0.0016
CCCc1ccccc1 [propylbenzene] | 0.00091
ClC(Cl)=C(Cl)Cl [tetrachloroethene] | 0.00063
ClC=C(Cl)Cl [trichloroethene] | 0.001
